Key:
mice = test: Hot plate test (pain threshold, mice); format: in vivo, Kunming mice; conditions: x ± s, n = 10; for Pain thresholds before administration: hot plate 55°C, baseline before administration; for Pain thresholds after administration at 30 min / Pain thresholds after administration at 60 min / Pain thresholds after administration at 120 min / Pain thresholds after administration at 180 min / Pain thresholds after administration at 240 min: hot plate
Experimental: Kunming mice, grade 2, female, weight of 20±2 g, purchased from the Division of Laboratory Animals, Department of Medical Sciences of Peking University, animal license No.: SCX Jing 2002-0001.
1.2.1 Solutions of huperzine A and huperzine A derivatives in normal saline water were prepared for stomach perfusion of mice.
1.2.2 Solutions of bucinnazine hydrochloride tablets, 30 mg/tablet, manufactured by Tianjin Lisheng Pharmaceutical Factory, approval No.: 0201001, in normal saline solution were prepared at a concentration of 1.5 mg/ml for stomach perfusion of mice.
A water bath was heated to a constant temperature of 55±0.5° C. The bottom of a metal plate was placed in contact with water surface. A mouse was placed on the hot plate and a timer was activated. The timer was deactivated when the mouse began licking its rear feet. The measured time was taken as the pain threshold. The pain threshold was measured two times for each mouse, and those mice whose average pain threshold was less than 30 s were qualified for the experiment.
Qualified mice were randomly divided into groups of 10. At first the pain threshold before administration of a drug was measured. Then drugs were administered as identified in Table 1. The administration volume was 0.2 ml per each 10 g of weight. Normal saline solution was administered to the control group. After administration, the pain threshold was measured at different time periods post-administration. A statistical t-test was calculated of the group interval, based on the test data.

migraine = test: Treatment of migraine with oral huperzine A (clinical cases); format: in vivo, human; conditions: for Time from administration until headache completely disappeared: two tablets (50 μg/tablet) oral on occurrence of migraine
Experimental: Test 2: Treatment of Migraine with Oral Huperzine A
Drug: Huperzine A Tablet (50 μg/tablet, manufactured by Henan Zhulin Zhongsheng Pharmaceutical Factory.)
Previously treated with bufferin plus, but recently reported that analgesic effects of bufferin plus have weakened.
Methods: On occurrence of migraine pains (8 times within a month), two tablets of huperzine A were administered. Within 20 minutes from administration, the headache has completely disappeared.
Patient: with a medical history of migraine of 2 years. Previously treated with ergotamine, but recently reported that analgesic effects of ergotamine have weakened.
Methods: On occurrence of migraine pains (10 times within a month), two tablets of huperzine A were administered. Within 30 minutes from administration, the headache has completely disappeared.
Patient: with a medical history of migraine of 3 years, occurring at a frequency of about 8-12 times per month.
Methods: One tablet of huperzine A was administered per day orally.

SMILES: C/C=C1\[C@H]2C=C(C)C[C@]1(NC(=O)OCC(C)C)c1ccc(=O)[nH]c1C2 [Example 7, (5R,9R,11E)-5-(2-methylpropoxycarbonylamino)-11-ethylidene-5,6,9,10-tetrahydro-7-methyl-5,9-methanocycloocta[b]pyridin-2(1H)-one]
- Pain thresholds before administration (mice; group later dosed 0.6 mg/kg by stomach perfusion): 15.8 ± 3.97 s
- Pain thresholds after administration at 30 min (mice; 0.6 mg/kg stomach perfusion): 28.5 ± 2.55 s
- Pain thresholds after administration at 60 min (mice; 0.6 mg/kg stomach perfusion): 30.1 ± 6.90 s
- Pain thresholds after administration at 120 min (mice; 0.6 mg/kg stomach perfusion): 27.7 ± 4.49 s
- Pain thresholds after administration at 180 min (mice; 0.6 mg/kg stomach perfusion): 23.1 ± 2.41 s

SMILES: C/C=C1\[C@H]2C=C(C)C[C@]1(N)c1ccc(=O)[nH]c1C2 [Huperzine A, (5R,9R,11E)-5-amino-11-ethylidene-5,6,9,10-tetrahydro-7-methyl-5,9-methanocycloocta[b]pyridin-2(1H)-one]
- Pain thresholds before administration (mice; group later dosed 0.2 mg/kg by stomach perfusion): 14.2 ± 4.49 s
- Pain thresholds before administration (mice; group later dosed 0.4 mg/kg by stomach perfusion): 15.3 ± 2.86 s
- Pain thresholds after administration at 30 min (mice; 0.2 mg/kg stomach perfusion): 13.3 ± 4.05 s
- Pain thresholds after administration at 60 min (mice; 0.2 mg/kg stomach perfusion): 14.5 ± 5.08 s
- Pain thresholds after administration at 120 min (mice; 0.2 mg/kg stomach perfusion): 14.2 ± 5.20 s
- Pain thresholds after administration at 180 min (mice; 0.2 mg/kg stomach perfusion): 13.3 ± 3.68 s
- Pain thresholds after administration at 240 min (mice; 0.2 mg/kg stomach perfusion): 14.6 ± 2.84 s
- Pain thresholds after administration at 30 min (mice; 0.4 mg/kg stomach perfusion): 28.4 ± 8.12 s
- Pain thresholds after administration at 60 min (mice; 0.4 mg/kg stomach perfusion): 31.7 ± 10.56 s
- Pain thresholds after administration at 120 min (mice; 0.4 mg/kg stomach perfusion): 27.6 ± 8.22 s
- Pain thresholds after administration at 180 min (mice; 0.4 mg/kg stomach perfusion): 25.5 ± 8.88 s
- Pain thresholds after administration at 240 min (mice; 0.4 mg/kg stomach perfusion): 27.8 ± 5.94 s
- Time from administration until headache completely disappeared (migraine; Case 1, migraine patient): ≤ 20 min
- Analgesic effects over a period of one month (migraine; Case 1, two tablets (50 μg/tablet) oral per attack): Good analgesic effects
- Side effects (migraine; Case 1, two tablets (50 μg/tablet) oral per attack, 8 times within a month): Minor side effects
- Time from administration until headache completely disappeared (migraine; Case 2, migraine patient): ≤ 30 min
- Analgesic effects over a period of one month (migraine; Case 2, two tablets (50 μg/tablet) oral per attack): Good analgesic effects
- Side effects (migraine; Case 2, two tablets (50 μg/tablet) oral per attack, 10 times within a month): No side effects
- Migraine attacks over the period of 1 month (prevention) (migraine; Case 3, migraine about 8-12 times per month, one tablet (50 μg) per day orally): did not complain of migraine attacks
- Effect of long-term administration on migraine attacks (migraine; long-term administration, summary statement): prevents migraine attacks
- Effect on migraine in clinical studies (migraine; oral administration, summary statement): alleviates and/or cures migraine

— US8026251B2, “Huperzine A and its derivatives as analgesic agents” (priority 2005, dated 2011)
